Data on seven molecules can be found in US6395740B1, “Calcitonin mimetics” (ZymoGenetics, Inc., priority 1997, dated 2002).

A word on the EC50: it is the concentration giving half of the maximal effect. The term IC50 denotes the concentration that gives 50% inhibition. Broadly, the melting point is the temperature, or range, at which the solid turns liquid.

In brackets after ≈: the same amount, converted by molar mass.

Data set [1] addresses T1, human calcitonin receptor (Homo sapiens, UniProt P30988).
T1 construct: expressed in transfected cells; host or cells: BHK (baby hamster kidney) cells, line Hollex-2 (Hollex 1 in the general description)
T1 sequence (P30988 25-474): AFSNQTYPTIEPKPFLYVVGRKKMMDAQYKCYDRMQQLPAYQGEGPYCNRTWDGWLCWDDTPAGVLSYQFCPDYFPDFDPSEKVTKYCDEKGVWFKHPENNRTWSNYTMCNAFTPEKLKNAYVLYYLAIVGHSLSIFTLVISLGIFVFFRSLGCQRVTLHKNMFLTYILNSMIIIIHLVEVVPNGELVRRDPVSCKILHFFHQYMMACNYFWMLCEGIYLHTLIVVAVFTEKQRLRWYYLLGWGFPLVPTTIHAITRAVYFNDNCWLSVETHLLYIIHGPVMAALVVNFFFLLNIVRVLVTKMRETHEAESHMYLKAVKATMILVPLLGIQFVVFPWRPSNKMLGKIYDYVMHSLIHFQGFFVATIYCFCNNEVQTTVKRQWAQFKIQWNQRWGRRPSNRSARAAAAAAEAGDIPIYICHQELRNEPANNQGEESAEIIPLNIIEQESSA
Briefly: CRE-luciferase assay for calcitonin mimetic activity. It is filed as cell-based. An excerpt: An alternative assay system (described in WO96/31536 which is incorporated herein in its entirety) involves selection of substances that are able to induce expression of a cyclic AMP response element (CRE)-luciferase reporter gene, as a consequence of elevated cAMP levels, in cells expressing a calcitonin receptor, but not in cells lacking calcitonin receptor expression. Such cells could include, for example, Boris/KS10-3 (expressing hamster calcitonin receptor and a CRE-luciferase reporter gene in baby hamster kidney cells (BHK 570 cells)) or Hollex 1 (expressing human calcitonin receptor and a CRE-luciferase reporter gene in BHK cells, as described in WO96/31536) or KZ10-20-48/pLJ6-4-25, which expresses the human glucagon receptor and a CRE-luciferase reporter gene in BHK cells. The human glucagon receptor is another member of the G-protein-coupled receptor family that transduces signal through adenylate cyclase-mediated elevation of cAMP.
This CRE-luciferase assay measures the end result of a multi-step signal transduction pathway triggered when a calcitonin mimetic stimulates the G-coupled calcitonin receptor. The complexity of this pathway provides multiple mechanisms for induction of luciferase transcription at points that are downstream of the calcitonin receptor, and therefore may not be calcitonin receptor-specific (e.g., forskolin's direct activation of adenylate cyclase). Any response triggered by non-specific inducers is eliminated by counter screening using the calcitonin receptor-negative cell lines described above.
Receptor-positive and -negative cell lines were maintained by serial passage in growth medium (DMEM supplemented with 10% heat-inactivated fetal calf serum (HI-FCS), 2 mM L-glutamine, 1 mM sodium pyruvate, 250 nM MTX, and 1 mg/mL G418). On the day prior to assay, cells were trypsinized, adjusted to 2×10^5 cells/mL in growth medium, plated in opaque white Dynatech Microlite microtiter tissue culture plates at 100 μL/well (2×10^4 cells), and grown overnight to confluence (37° C., 5% CO2 atmosphere)
Test substances were prepared in DMSO at 100 times the final desired assay concentration. Induction was initiated by adding 100 μL/well test substance diluted 1:100 or 1:1000 (only first round screening extracts were diluted 1:100) in assay medium (DMEM supplemented with 10% HI-FCS, 2 mM L-glutamine, 1 mM sodium pyruvate and 20 mM Hepes, pH 7.25). Controls were included on each plate: untreated wells (basal), […] forskolin, and 100 nM human calcitonin. For test substances prepared in DMSO, an equal concentration of DMSO was included in control wells (not to exceed a final assay concentration of 2% DMSO, with a preferred maximum of 1%). Plates were incubated for 3 to 8 hours (4 hours preferred) at 37° C. in an atmosphere of 5% CO2.
Following induction, luciferase activity was measured using a Promega luciferase assay kit (E1500) according to the assay kit protocol. Briefly, assay medium was removed and cells were washed once with phosphate buffered saline (PBS). After the wash, 25 μL of lysis buffer was added to each well, and the plates were incubated for 15 minutes at room temperature. Fifty microliters of Luciferase Assay Substrate (Promega, Corp.) was added to each well and the plates were transferred to a Labsystems Lumiscan microtiter luminometer. The amount of luminescence (relative light units, RLU) was determined by “Fastscan” following a 0.1 second/well integration of signal. Basal (uninduced) luciferase signal was subtracted from all measurements, and the luciferase signal induced by test samples was expressed as a percentage of the signal in the calcitonin and forskolin controls. […]

Data set [2] concerns PTH-induced bone resorption in mouse calvariae. Briefly: Calvarial assay: inhibition of PTH-induced bone resorption (calcium release). The class given is cell-based. The following applies: 1 nM PTH 1-34, 72 hours, read-out: Release of PTH Induced Ca++ IC50. How it is done:
Calvaria from 4-day old neonatal CD-1 mice (pregnant mice received from Charles River Laboratories, Wilmington, Mass.) were trimmed with fine-tipped scissors to leave the parietal regions, including the sagittal suture. These trimmed bones were placed singly per well into 6-well cell culture cluster plates (Costar, Pleasanton, Calif.) with 1 mL/well of growth medium (DMEM, BioWhittaker, Walkersville, Md.) with 4.5 g/L glucose, 0.29 mg/mL L-glutamine, 1 mM sodium pyruvate, 15% heat-inactivated horse serum, and antibiotics (penicillin-G 50 μg/mL, streptomycin 50 μg/mL, and neomycin 100 μg/mL), and rocked gently (RedRocker™, model PR50-115V, Hoefer, San Francisco, Calif.) at 37° C. in a 5% CO2 humidified incubator for 24 hours preincubation.
Following preincubation, medium was removed and replaced with 1.5 mL/well of growth medium containing 1 nM parathyroid hormone (PTH) 1-34 (Sigma) to stimulate bone resorption. For evaluation of the ability of calcitonin mimetics to inhibit PTH induced bone resorption, mimetic compounds in DMSO were added to the growth medium at concentrations ranging from 1-400 μg/mL (final assay concentration of DMSO less than or equal to […]). In each exierimerec human calcitonin (0.02-20 nM, 0.2-2 nM preferred) was added to PTH treated bones as a positive control. […] All control wells contained a final assay concentration of DMSO equal to that present in calcitonin mimetic treated wells.
Five bones were included in each sample group. Bones were incubated for 72 hours following PTH addition to allow resorption of bone to occur. Observations were made of the general appearance, healthiness and number of cells that migrate from the calvaria during the incubation as a possible indication of possible toxicity. Calvaria to be examined histologically were transferred to glass scintillation vials containing 10 mL of 10% neutral buffered formalin. The medium was removed from the wells, and total calcium measurements were made using a Nova 7/7+7 Electrolyte Analyzer (Nova Biomedical, Waltham, Mass.) according to the manufacturer's specifications. Induction of bone resorption by PTH is seen as an increase in the concentration of calcium in the growth medium due to degradation of the bone matrix.

For data set [3] the following is noted: rats, evaluated by pQCT or histomorphometry; cited from earlier work.

On to `COc1cc(CN2CCN(C(=O)Nc3cccc(C(F)(F)F)c3)CC2)cc(O)c1OC` [Compound 50-2013], for which the EC50 in data set [1] is 43.2 µM. In addition, the IC50 in data set [2] is 15 µg/mL (≈ 34.1 µM).

With `COc1cc(CN2CCN(Cc3ccc(OC)c(OC)c3OC)CC2)cc(I)c1O` [Compound 850-0221], the EC50 in data set [1] is 291 µM.

Turning to `COc1cc(CN2CCN(C(=O)Nc3cccc(C(F)(F)F)c3)CC2)cc(OC)c1OC` [Compound 850-0277], the melting point was 79 to 82 °C. Besides, the IC50 in data set [2] stood at 50 µg/mL (≈ 110 µM).

`COc1ccc(CN2CCN(Cc3cc(I)c(O)c(OC)c3)CC2)cc1C` [Compound 850-0293]: in data set [1], the EC50 lay in the range of 51.8 to 104 µM. The 50% inhibitory concentration (IC50) in data set [2] lay within 25 to 50 µg/mL (≈ 51.8 to 104 µM).

As to `COc1cc(CN2CCN(Cc3cc(Br)cc(Br)c3O)CC2)cc(OC)c1OC` [Compound 850-1085], the EC50 in data set [1] was 66.9 µM. Besides, the IC50 in data set [2] was found to be 20 µg/mL (≈ 37.7 µM).

For `COc1cc(CN2CCN(Cc3cc(Br)ccc3O)CC2)cc(Br)c1O` [Compound 850-2346], the EC50 in data set [1] was 206 µM. Also, the IC50 in data set [2] stood at 25 µg/mL (≈ 51.4 µM).

With calcitonin, the “bone loss associated with combined ovariectomy and immobilization” value in data set [3] is “very effective at reducing bone loss”.
